“And” between values parts separate entries of the source, which are not always exact repeats. Equal entries are not always repeated.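 Values below derive from 48-hour exposures of cells grown in 96-well plates, with endpoints linearly interpolated between the two concentrations bracketing the appropriate inhibition level. The concentration for 50% growth inhibition is given as GI50. TGI: total growth inhibition.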
Key:
Experiment in all cases: NCI tumour cell line growth inhibition, 48 h
HL-60(TB) leukemia = system: HL-60(TB) leukemia
UACC-62 melanoma = system: UACC-62 melanoma
BT-549 breast = system: BT-549 breast
KM12 colon = system: KM12 colon
HOP-62 NSCLC = system: HOP-62 NSCLC
ACHN renal = system: ACHN renal
OVCAR-4 ovarian = system: OVCAR-4 ovarian
EKVX NSCLC = system: EKVX NSCLC
A549 NSCLC = system: A549 NSCLC
SK-MEL-5 melanoma = system: SK-MEL-5 melanoma

Row | Compound | TGI (HL-60(TB) leukemia) | TGI (UACC-62 melanoma) | TGI (BT-549 breast) | TGI (KM12 colon) | TGI (HOP-62 NSCLC) | TGI (ACHN renal) | TGI (OVCAR-4 ovarian) | TGI (EKVX NSCLC) | TGI (A549 NSCLC) | TGI (SK-MEL-5 melanoma) | GI50 (HL-60(TB) leukemia) | GI50 (BT-549 breast) | GI50 (KM12 colon) | GI50 (HOP-62 NSCLC) | GI50 (ACHN renal) | GI50 (OVCAR-4 ovarian) | GI50 (EKVX NSCLC) | GI50 (A549 NSCLC) | GI50 (SK-MEL-5 melanoma)
1 | COc1ccc2cc1Oc1ccc(cc1)C(Sc1ccccc1)CCOC(=O)CC2 (stereo not drawn) | > 100 µM | > 100 µM | > 100 µM | > 100 µM | > 100 µM | > 100 µM | > 100 µM | > 100 µM | > 100 µM | > 100 µM |  |  |  |  |  |  |  |  | 
2 | CC(C)=CC(=O)O[C@H]1C(=O)O[C@@H]2C[C@H]3[C@H](C)C(=O)C(O[C@@H]4O[C@H](CO)[C@@H](O)[C@H](O)[C@H]4O)=C[C@]3(C)[C@H]3[C@@H](O)[C@H](O)[C@]4(C(=O)O)OC[C@]32[C@@H]14 | > 100 µM | > 100 µM | > 100 µM | > 100 µM | > 100 µM | > 100 µM | > 100 µM | > 100 µM | > 100 µM | > 100 µM | 35.8 µM | > 100 µM | 49.1 µM | 33.2 µM | > 100 µM | 25.2 µM | > 100 µM | 55 µM | 42.9 µM
3 | COC(=O)c1ccccc1C#CC#Cc1ccccc1C(=O)OC | 8.25 µM | > 10 µM | > 10 µM | > 10 µM | > 10 µM | > 10 µM | > 10 µM | > 10 µM | > 10 µM | > 10 µM |  |  |  |  |  |  |  |  | 
4 | O=C1C(NCCc2ccc(O)c(O)c2)=CC(=O)c2ncccc21 | 60.3 µM | 22.5 µM | 19.6 µM | 30.5 µM | 49.9 µM | 33.5 µM | 50.9 µM | 52 µM | 35.7 µM | 15.4 µM |  |  |  |  |  |  |  |  | 
5 | FC(F)(F)c1ccccc1N1CCN(c2nc(-c3cccs3)nc3ccc(Br)cc23)CC1 | > 100 µM | 46.3 µM | > 100 µM | 83.7 µM | > 100 µM | > 100 µM | > 100 µM | > 100 µM | > 100 µM | 30.9 µM |  |  |  |  |  |  |  |  | 
6 | [Se]=P(c1ccccc1)(c1ccccc1)c1ccc(C(c2ccccc2)=P(c2ccccc2)(c2ccccc2)c2ccccc2)cc1 | 1.06 µM | 3.85 µM | 6.56 µM | 1.8 µM | 4.33 µM | 8.06 µM | > 33.1 µM | 15.8 µM | 13 µM | 1.64 µM |  |  |  |  |  |  |  |  | 
7 | O=C1C(F)=CC(COC(c2ccccc2)(c2ccccc2)c2ccccc2)OC1n1cc(F)c(=O)[nH]c1=O (stereo not drawn) | 10.2 µM | 3.62 µM | 4.38 µM | 7.72 µM | 11.6 µM | 3.08 µM | 14.4 µM | > 24.4 µM | 6.12 µM | 3.22 µM |  |  |  |  |  |  |  |  | 
8 | O=C1Sc2ccc(Br)cc2C(=O)Sc2ccccc21 | 9.71 µM | 31.8 µM | 28.2 µM | 33.8 µM | 28.4 µM | 32.8 µM | 29.8 µM | 22.2 µM | > 71.1 µM | 29.5 µM |  |  |  |  |  |  |  |  | 
9 | Cc1c(C(=O)N2CCN(c3ccc([N+](=O)[O-])cc3)CC2)[n+](=O)c2cc(Cl)c(Cl)cc2n1[O-] | > 100 µM | 34 µM | 33 µM | > 100 µM | 38.2 µM | 26.3 µM | 29.5 µM | 41.1 µM | 48.5 µM | 24.6 µM |  |  |  |  |  |  |  |  | 
10 | CN1C(=S)C(c2ccccc2)Sc2ccccc21 (stereo not drawn) | > 100 µM | > 100 µM | > 100 µM | > 100 µM | > 100 µM | > 100 µM | > 100 µM | > 100 µM | > 100 µM | > 100 µM |  |  |  |  |  |  |  |  | 
11 | CN(C)c1ccc(/C=C2\N=C(NN)NC2=O)cc1 | > 100 µM | > 100 µM | > 100 µM | > 100 µM | > 100 µM | > 100 µM | > 100 µM | > 100 µM | > 100 µM |  |  |  |  |  |  |  |  |  | 
12 | O=C1NC(N/N=C\C(O)C(O)C(O)CO)=N/C1=C/c1ccc(Cl)cc1 (stereo not drawn) | > 100 µM |  | > 100 µM | > 100 µM | > 100 µM | 52.7 µM and 48.1 µM | 57 µM | > 100 µM | > 100 µM | > 100 µM |  |  |  |  |  |  |  |  | 
13 | COc1cc2c(c(OC)c1OC)-c1ccc(SC)c(=O)cc1[C@@H](OC(C)=O)CC2 | 0.0242 µM | > 100 µM | > 100 µM | > 48.5 µM | > 100 µM | > 100 µM | > 100 µM | > 100 µM | > 100 µM |  |  |  |  |  |  |  |  |  | 
14 | O=C(Nc1nc2c(=O)[nH]cnc2s1)c1ccccc1 | > 100 µM | > 100 µM | > 100 µM |  | > 100 µM | > 100 µM | > 100 µM | > 100 µM | > 100 µM | > 100 µM |  |  |  |  |  |  |  |  | 
15 | Cc1ccc(OCC2OC(n3cnc4c(N(C)C)nc(Br)nc43)CC2Oc2ccc(C)cc2)cc1 (stereo not drawn) | > 100 µM | > 100 µM | > 100 µM | > 100 µM |  | > 100 µM | > 100 µM | > 100 µM | > 100 µM | > 100 µM |  |  |  |  |  |  |  |  | 
16 | Cn1ccn2c3nc4ccccc4nc3c(=O)c(C#N)c12 | > 100 µM | > 100 µM | > 100 µM | > 100 µM |  | > 100 µM | > 100 µM | > 100 µM | > 100 µM | > 13.4 µM |  |  |  |  |  |  |  |  | 
